Experimental data reported in patent US20210046010A1, “TABLETS CONTAINING ARGININE AT HIGH CONCENTRATION” (KYOWA HAKKO BIO CO., LTD., priority 2015, published 2021).

Tests used:
[1] = Moisture content of powder by heating and drying method moisture analyzer; type: physicochemical; conditions: heating and drying method moisture analyzer MX-50
Description: (§1) 600 g of L-arginine was added to 5 L of water, and the mixture was mixed, and spray dried by a spray dryer [L-8i type spray dryer (manufactured by OHKAWARA KAKOHKI CO., LTD.)] set to the conditions of atomizer rotation number=35,000 rpm, inlet temperature=180° C. and outlet temperature=70° C. to give a powder. The moisture content of the aforementioned powder was measured by a heating and drying method moisture analyzer [heating and drying method moisture analyzer MX-50 (manufactured by A&D Company, Limited)] to find 1.96 mass % The moisture content was 2.3 mass % when measured by the Karl Fischer's method at the General Incorporated Foundations Japan Food Research Laboratories. Hereinafter this powder is indicated to as “SD arginine-A”.

[2] = Moisture content of powder by Karl Fischer's method; type: physicochemical; conditions: Japan Food Research Laboratories
Description: as §1

| Compound | moisture content [1] [mass %] | moisture content [2] [mass %] |
| --- | --- | --- |
| N=C(N)NCCC[C@H](N)C(=O)O [SD arginine-B, L-arginine] | 1.81 |  |
| N=C(N)NCCC[C@H](N)C(=O)O [SD arginine-C, L-arginine] | 3.80 | 3.91 |
| N=C(N)NCCC[C@H](N)C(=O)O [SD arginine-A, L-arginine] | 1.96 | 2.3 |
